The text below walks through data of a melting point compilation (Tetko et al.; mined from patent text by program, amines drawn as free bases though some values may be those of a salt).

Regarding `CCOc1ccc(C(=O)N2CCc3cc(S(=O)(=O)n4cc(-c5ccccc5)[nH]c4=O)ccc32)cc1`, the melting point lay in the range of 249 to 253 °C. For `CNC(=O)c1cnn(-c2ccc(Cl)cc2C(F)(F)F)c1C#N` the value was 162 to 164 °C; for `COCOc1cccc(-c2ccc(-c3ccccc3)cc2-c2ccc3c(c2)C(C)(C)CCC3(C)C)c1C(=O)O`, 103 to 104 °C; for `CC(=O)NNc1c(C)cnc2c(NC(=O)c3ccccc3C(F)(F)F)cccc12`, 209 to 211 °C.

For `O=C(O)c1cccc(-c2ccc3c(c2)C(c2cc(Cl)ccc2Cl)CC3)c1` (configuration not stated), the melting point fell in the range of 229 to 230 °C. In turn, `CSc1cc(Cl)nn2c(-c3ccnc(N)c3)c(-c3ccc(F)c(C)c3)nc12` displayed a melting point of 237 to 238 °C. Compound `CC12CC(F)C3c4ccc(O)cc4CC(CCCCCBr)C3C1CCC2=O` (configuration not stated) displayed a melting point of 178 °C.

In turn, `CC(C)c1noc(-c2ncn3c4cccc(Cl)c4c(=O)n(C)c23)n1` returned a melting point of 209 °C.

On to `CC(Oc1ncn(-c2cccc(F)c2)n1)C(=O)O` (configuration not stated), for which the melting point lay within 177 to 179 °C. With `O=C(COCc1csc(-c2ccc(F)cc2)n1)c1ccccc1`, the melting point is 104 to 106 °C. In the case of `N#CC(=Cc1ccc(O)c(O)c1)C(N)=O`, the melting point came to 247 °C.

As to `CCCCC(=O)N[C@@H]1CN2C(=O)N(c3cc(Cl)nc(Cl)c3)C(=O)[C@@]2(Cc2ccc(OC(F)(F)F)cc2)C1`, the melting point was determined as 66.8 °C. `COC(=O)C(O)C(CC(C)C)NC(=O)C(CC(C)C)NC(=O)C(CC(=O)N1CCOCC1)Cc1cccc2ccccc12` (mixture of isomers) displayed a melting point of 69 to 70 °C. For `COc1cccc(CNC(=O)c2cc3c(=O)n(CCOc4ccc(Cl)cc4)c(=O)n(C)c3s2)c1` the value was 109 to 112 °C; for `O=C1CCCC(O)=C1NC(=O)C1CC1`, 82 °C.

For the compound `COc1ccc(/C=C/[N+](=O)[O-])c(F)c1`, the melting point was in the range of 80 to 82 °C. For `COc1ccc(C)cc1NC(=O)Nc1ccc(N2CCN(C(=O)Oc3ccccc3)CC2)cc1`, the melting point came to 179 °C.

On to `Cc1cc(N(C)C)nc(N)n1`, for which the melting point lay within 172 to 174 °C.

Compound `Clc1ccc(C2NN=C(c3cccnc3)S2)cc1` (configuration not stated) gave a melting point of 108 to 110 °C.

`CC1SCN(CCCCN2CCN(c3nsc4ccccc34)CC2)C1=O` (configuration not stated) gave a melting point of 113 to 115 °C. The compound `CNS(=O)(=O)c1ccc(C2=C(c3ccccc3)C(=O)C(C)(C)O2)cc1Cl` came in with a melting point of 136 to 137 °C. For `O=C(C=Cc1ccc(F)cc1)c1ccc(C(F)(F)F)cc1` the value was 89 to 92 °C; for `COC(=O)c1ccccc1NC(=O)c1ccc(Br)c(C)c1`, 123 °C; for `COc1ccc(C=Cc2c(Cl)cncc2Cl)c2c1OCC2C` (configuration not stated), 117 to 118 °C. Turning to `c1ccc(C2(Oc3cnccn3)CCNCC2)cc1`, the melting point was 107 to 108 °C. In turn, `CN(C(=O)Nc1ccc2c(ccn2C)c1)c1cccnc1` registered a melting point of 58 to 60 °C. Then `O=C(CCCCCl)NC1CCCCC1`, with 70 to 71 °C; and `COc1ccc(C(=O)Nc2ccccc2)cc1NCc1ccc(O)cc1`, with 188 to 190 °C. For `CCOC(=O)C(=Cc1ccc(-c2cccc(NC)c2)cc1)OCC`, the melting point was 52 °C.

On to `Cn1cncc1C(O)(c1ccc(-c2ccc(Cl)cc2)cc1)c1ccc2c(c1)c(-c1cccc(Cl)c1)cc(=O)n2C` (configuration not stated), for which the melting point turned out to be 236 °C.

Consider `N#Cc1ccccc1Oc1ccc(Cl)cc1`, for which the melting point lay in the range of 84 to 86 °C. Take `CCC(=O)NNC(=O)C(=O)NC1CC(C)(C)NC(C)(C)C1`: the melting point lay in the range of 221 to 225 °C. For `CC1(C)OC(=O)Nc2c(F)cc(-c3ccc(F)c(Cl)c3)cc21` the value was 246 to 248 °C.

Turning to `COc1ccc(CCCC(=O)NC(NC(Cc2ccccc2C)=NC#N)C(C)(C)C)cc1` (configuration not stated), the melting point lay within 171 to 172 °C. Turning to `CCCn1c(=O)c2nc(C(C)Cc3ccc(OCC(=O)NCCN)cc3)[nH]c2n(CCC)c1=O` (configuration not stated), the melting point fell in the range of 143 to 144 °C. The compound `CCOc1ccc2[nH]c(=O)n(C34CC5CC(CC(C5)C3)C4)c2c1` gave a melting point of 146 °C. On to `CC(C)(C)CCNC(=O)c1coc(C2C3CCC(O3)C2Cc2ccccc2CCC(=O)O)n1` (configuration not stated), for which the melting point was 160 to 162 °C. Take `O=C(Nc1cccc(Cl)c1)C1=Cc2ccccc2S1=O` (configuration not stated): the melting point lay in the range of 257 to 258 °C. Consider `COc1cc(OCCN2CCCCC2)ccc1/C=C/c1cc(/C=C/c2ccc3cc[nH]c3c2)n[nH]1`, for which the melting point lay within 150 to 155 °C. Consider `CC(C)COc1ccc(C(=O)N/C(=C\c2ccc(OCC(F)F)cc2)C(=O)NCCO)cc1`, for which the melting point fell in the range of 150 to 151 °C.

`CCCCCCCOc1ccc(C(=O)Cl)cc1OCCCCCCC` came in with a melting point of 57 to 58 °C. `CC1(C)CC(=O)c2cc[nH]c2C1` displayed a melting point of 177 to 178 °C. As to `Cc1cc(F)ccc1C(=O)CCCN1CCC2(CC1)C(=O)NCN2c1ccccc1`, the melting point was 180 to 182 °C. For `COc1ccc(C(=O)C2CCC(C)(C(=O)O)C2(C)C)c(OC)c1` (configuration not stated) the value was 145 °C.

Turning to `CCOC(=O)CNC(=O)c1cn2nc(NCCCN3CCC(OC(c4ccccc4)c4ccccc4)CC3)ccc2n1`, the melting point was 172 to 174 °C. `O=c1nc(-c2ccsc2)c2c(=O)nc(-c3ccsc3)c1=2` showed a melting point of more than 400 °C. Regarding `BrC1=C(Br)C(Br)(Br)C(Br)=C1Br`, the melting point lay in the range of 87 to 88 °C.

`Cc1nc2cc(C(C)C(=O)O)ccc2o1` (configuration not stated) returned a melting point of 115 to 117 °C.

`Cc1nc(C)c(CSC(=O)c2ccccc2)c(O)c1O` yielded a melting point of 174 to 177 °C. Then `COc1cc2c(cc1OC)N(C)C(=O)CN=C2c1cccc(C(C)=O)c1`, with 148 to 150 °C.

Consider `C1=Cn2cnnc2C(c2ccccc2)c2ccccc21` (configuration not stated), for which the melting point lay within 217 to 218 °C. For `COc1cc2c(cc1Nc1ncc(Cl)c(N[C@@H]3CCCC[C@H]3NS(C)(=O)=O)n1)CCN(CC(F)(F)F)CC2` the value was 103 to 110 °C; for `CCc1ccc(-c2cc3ncnc(Nc4ccc5[nH]ccc5c4)c3s2)cc1`, 171 to 182 °C; for `O=C1CN=C(c2ccccc2Br)c2cc(F)ccc2N1`, 194 to 196 °C. `O=C(Nc1c[nH]nc1C(=O)Nc1ccccc1)c1ccccn1` came in with a melting point of 281 to 282 °C. `Nc1c(NC2CCc3ccccc32)[nH]c(=O)[nH]c1=O` (configuration not stated) gave a melting point of more than 150 °C.

In turn, `Cc1ccc2c(c1F)N(C1CC1)C=NS2(=O)=O` came in with a melting point of 189 to 192 °C. As for `C=Cc1ccc(O)c(-n2nc3ccccc3n2)c1`, the melting point was in the range of 98 to 99 °C. Take `Cc1ccc(COc2ccc(C(=O)NC[C@@H](C(=O)NO)N3CCN(S(C)(=O)=O)CC3)cc2)cc1`: the melting point stood at 180 °C. Compound `COc1cc(NC(=O)OC(C)(C)C)c([N+](=O)[O-])cc1-c1ccc(F)cc1` registered a melting point of 250 °C. `Cc1c(O)c(=O)ccn1CC(=O)O` had a melting point of more than 230 °C. As for `O=C(CNCc1cccc(C(F)(F)F)c1)Nc1cccc2c1C(=O)c1c(NC(=O)CNCc3cccc(C(F)(F)F)c3)cccc1C2=O`, the melting point lay within 190 to 191 °C. For the compound `CC1(C)COC(c2ccccc2-c2ccc(CO)cc2)=N1`, the melting point was 97 to 100 °C.

On to `CCOC(=O)C1=C(N)NC2=C(C(=O)CCC2)C1c1ccccc1Br` (configuration not stated), for which the melting point turned out to be 245 °C. With `CN1CCN(c2c(CO)cnc3c(NC(=O)c4c(Cl)cccc4Cl)cccc23)C1=S`, the melting point lay in the range of 253 to 254 °C. Compound `O=C1Nc2cccc(Cl)c2C1(O)c1cc2c(cc1O)OCO2` (configuration not stated) displayed a melting point of 250 to 253 °C. `Cn1c(C=NO)cnc1[N+](=O)[O-]` showed a melting point of 203 to 205 °C.

Consider `COc1ccccc1C1C(C#N)=C(C(C)C)Nc2n[nH]cc21` (configuration not stated), for which the melting point was more than 250 °C. Then `CC(C)(C)OC(=O)ON=C(C#N)c1cccc2ccccc12`, with 90 to 92 °C. In the case of `C=CCOc1cc(C(=O)O)cc(N)c1C(=O)c1ccccc1`, the melting point was 206 to 208 °C.

In turn, `CN(C)S(=O)(=O)n1ccc2cnccc21` yielded a melting point of 87 °C.

`Cc1c(Cl)cccc1S(=O)(=O)C[N+](=O)[O-]` registered a melting point of 78 to 79 °C. For `O=C(CCCCl)c1ccc2ccccc2c1O` the value was 73 to 79 °C; for `CCCCCC(=O)NC1(OCC)CC1`, 47 to 48.5 °C. Turning to `N#CSCC(I)=C(I)CBr`, the melting point was 84 to 86 °C. Then `CCCCNC(P(=O)(O)O)P(=O)(O)O`, with 188 to 189 °C; and `N#Cc1ccc2c(c1)CCC=C2n1ccnc1`, with 152 to 153 °C.

Compound `CCCN(CCC)C(=O)CN(C(=O)CNC(=O)Nc1cccc(C)c1)c1ccccc1` had a melting point of 182 °C. The compound `CCOC(=O)C(=CNC1CC1)C(=O)c1c(F)cc(Cl)c(F)c1Cl` displayed a melting point of 106 to 107 °C. The compound `Cc1nc(-n2ccc(OCc3ccc(F)cc3)cc2=O)sc1C(=O)O` returned a melting point of more than 300 °C. For `CCCCCCCCNc1ccc2c(C)nc(CC3OC(CO)C(O)C3O)n2n1` (configuration not stated) the value was 105 to 106 °C; for `O=c1oc2cc(OCC3CO3)ccc2c2c1CCCC2` (configuration not stated), 120 to 121 °C; for `CCCCc1oc2ccccc2c1C(=O)O`, 106 to 110 °C. Compound `NS(=O)(=O)c1ccc(NN=Cc2ccc(F)cc2)cc1` displayed a melting point of 205 to 206 °C. Compound `CCS(=O)(=O)Cc1ccc(Oc2ccc(NC(C)=O)cc2)cc1` returned a melting point of 186 °C. In the case of `CN1CCC2(CC1)Nc1cc(Cl)c(Cl)cc1-n1cccc12`, the melting point is 214 to 215 °C. The compound `COC(=O)c1ccc(-c2ccc(Cl)cc2)c(-c2ccc(Cl)cc2Cl)c1` returned a melting point of 136 °C. For the compound `CC(C1CC(c2ccc(C(F)(F)F)cc2)C1)N(O)C(N)=O` (configuration not stated), the melting point was in the range of 147 to 148 °C. Then `CN(C)CC(=O)N1c2ccccc2NC(=O)c2cncnc21`, with 208 to 210 °C; and `Cc1ccc(NC(=O)C(CS)Cc2ccccc2)c(C)c1C(=O)O` (configuration not stated), with 180 to 181 °C. Then `O=C1NC(N2CCCCCC2)=N/C1=C\c1c[nH]c2ncc(F)cc12`, with 299 °C; and `NC(=O)Nc1ccc(-c2nnc(CSCCOc3ccccc3)o2)cc1`, with more than 220 °C.
